Test system: MV-4-11 cells
Experiment: Gene expression microarray analysis (Affymetrix PrimeView) and GSEA
Assay type: cell-based, human
Design: RFU PODN (11730768_x_at) / Fold change /veh PODN (11730768_x_at) / RFU LINC00158 (11744669_a_at) / Fold change /veh LINC00158 (11744669_a_at) / RFU DUSP10 (11751237_a_at) / Fold change /veh DUSP10 (11751237_a_at) / RFU ID3 (11757404_x_at) / Fold change /veh ID3 (11757404_x_at) / RFU PLEKHG5 (11737974_s_at) / Fold change /veh PLEKHG5 (11737974_s_at) / RFU LRRC4B (11730491_at) / Fold change /veh LRRC4B (11730491_at) / RFU GIMAP4 (11747438_a_at) / Fold change /veh GIMAP4 (11747438_a_at) / RFU KRT8 (11758183_x_at) / Fold change /veh KRT8 (11758183_x_at) / RFU CNN1 (11734310_a_at) / Fold change /veh CNN1 (11734310_a_at) / RFU VPS37D (11726825_at) / Fold change /veh VPS37D (11726825_at) / RFU C10orf10 (11716522_x_at) / Fold change /veh C10orf10 (11716522_x_at) / RFU KIR2DL2 /// KIR2DL4 /// KIR2DL5A /// KIR2DL5B /// KIR2DS1 /// KIR2DS2 /// KIR2DS3 /// KIR2DS4 /// KIR3DL3 /// KIR3DL3 /// KIR3DS1 (11738374_at) / Fold change /veh KIR2DL2 /// KIR2DL4 /// KIR2DL5A /// KIR2DL5B /// KIR2DS1 /// KIR2DS2 /// KIR2DS3 /// KIR2DS4 /// KIR3DL3 /// KIR3DL3 /// KIR3DS1 (11738374_at) / RFU C1QL1 (11718748_at) / Fold change /veh C1QL1 (11718748_at) / RFU TMPRSS4 (11747572_a_at) / Fold change /veh TMPRSS4 (11747572_a_at) / RFU HAMP (11756126_x_at) / Fold change /veh HAMP (11756126_x_at) / RFU RNFT2 (11725882_a_at) / Fold change /veh RNFT2 (11725882_a_at) / RFU NR4A2 (11747474_a_at) / Fold change /veh NR4A2 (11747474_a_at) / RFU ABCC12 (11746883_a_at) / Fold change /veh ABCC12 (11746883_a_at) / RFU TMEM136 (11760407_x_at) / Fold change /veh TMEM136 (11760407_x_at) / RFU CLDN22 /// WWC2 (11732394_at) / Fold change /veh CLDN22 /// WWC2 (11732394_at) / RFU HLA-DPB1 (11760878_x_at) / Fold change /veh HLA-DPB1 (11760878_x_at) / RFU SPINT1 (11716480_a_at) / Fold change /veh SPINT1 (11716480_a_at) / RFU GAP43 (11754022_s_at) / Fold change /veh GAP43 (11754022_s_at) / RFU A4GNT (11735810_at) / Fold change /veh A4GNT (11735810_at) / RFU PRB3 (11715151_x_at) / Fold change /veh PRB3 (11715151_x_at) / RFU TUBB4B (11761932_at) / Fold change /veh TUBB4B (11761932_at) / RFU CAPN14 (11732068_a_at) / Fold change /veh CAPN14 (11732068_a_at) / RFU TMCC2 (11721928_a_at) / Fold change /veh TMCC2 (11721928_a_at) / RFU IRGQ (11745062_a_at) / Fold change /veh IRGQ (11745062_a_at) / RFU FAM174B (11720279_a_at) / Fold change /veh FAM174B (11720279_a_at) / RFU TMPRSS4 (11748680_a_at) / Fold change /veh TMPRSS4 (11748680_a_at) / RFU FAM212B (11763350_a_at) / Fold change /veh FAM212B (11763350_a_at) / RFU PLEKHG5 (11743358_a_at) / Fold change /veh PLEKHG5 (11743358_a_at) / RFU ZSCAN30 (11745921_a_at) / Fold change /veh ZSCAN30 (11745921_a_at) / RFU CMKLR1 (11741424_a_at) / Fold change /veh CMKLR1 (11741424_a_at) / RFU LOC101060620 /// MAPK8IP1 (11723275_at) / Fold change /veh LOC101060620 /// MAPK8IP1 (11723275_at) / RFU SPTSSB (11747773_x_at) / Fold change /veh SPTSSB (11747773_x_at) / RFU PRSS12 (11739890_at) / Fold change /veh PRSS12 (11739890_at) / RFU BIN1 (11741810_x_at) / Fold change /veh BIN1 (11741810_x_at) / RFU WNT11 (11732464_a_at) / Fold change /veh WNT11 (11732464_a_at) / RFU C10orf10 (11716521_a_at) / Fold change /veh C10orf10 (11716521_a_at) / RFU C5orf56 (11738089_at) / Fold change /veh C5orf56 (11738089_at) / RFU CYB561 (11721691_x_at) / Fold change /veh CYB561 (11721691_x_at) / RFU ANKRD19P (11752326_a_at) / Fold change /veh ANKRD19P (11752326_a_at) / RFU OR2T12 /// OR2T33 /// OR2T8 (11738714_s_at) / Fold change /veh OR2T12 /// OR2T33 /// OR2T8 (11738714_s_at) / RFU VCAN (11748164_a_at) / Fold change /veh VCAN (11748164_a_at) / RFU JSRP1 (11732532_at) / Fold change /veh JSRP1 (11732532_at) / RFU KRTAP10-11 (11738290_x_at) / Fold change /veh KRTAP10-11 (11738290_x_at) / RFU MYO3A (11730013_a_at) / Fold change /veh MYO3A (11730013_a_at) / RFU EBF3 (11725865_a_at) / Fold change /veh EBF3 (11725865_a_at) / RFU CAMK2N1 (11719241_x_at) / Fold change /veh CAMK2N1 (11719241_x_at) / RFU C5orf56 (11738088_a_at) / Fold change /veh C5orf56 (11738088_a_at) / RFU OLFML3 (11715873_a_at) / Fold change /veh OLFML3 (11715873_a_at) / RFU LOC100653217 /// NTM (11731650_a_at) / Fold change /veh LOC100653217 /// NTM (11731650_a_at) / RFU MAPK11 (11762145_a_at) / Fold change /veh MAPK11 (11762145_a_at) / RFU FIZ1 (11724087_x_at) / Fold change /veh FIZ1 (11724087_x_at) / RFU OASL (11726364_x_at) / Fold change /veh OASL (11726364_x_at) / RFU SOX15 (11748057_x_at) / Fold change /veh SOX15 (11748057_x_at) / RFU CD79A (11719716_a_at) / Fold change /veh CD79A (11719716_a_at) / RFU HIST1H1D (11736915_at) / Fold change /veh HIST1H1D (11736915_at) / RFU CASKIN2 (11723855_a_at) / Fold change /veh CASKIN2 (11723855_a_at) / RFU LOC730098 (11760151_x_at) / Fold change /veh LOC730098 (11760151_x_at) / RFU OR4N2 (11742367_at) / Fold change /veh OR4N2 (11742367_at) / RFU PRRT2 (11749266_a_at) / Fold change /veh PRRT2 (11749266_a_at) / RFU SNX32 (11753110_a_at) / Fold change /veh SNX32 (11753110_a_at) / RFU CDHR5 (11726645_a_at) / Fold change /veh CDHR5 (11726645_a_at) / RFU RCAN1 (11760418_a_at) / Fold change /veh RCAN1 (11760418_a_at) / RFU FAM167A (11723789_a_at) / Fold change /veh FAM167A (11723789_a_at) / RFU FAM26E (11764081_at) / Fold change /veh FAM26E (11764081_at) / RFU ISYNA1 (11749810_s_at) / Fold change /veh ISYNA1 (11749810_s_at) / RFU ACY1 (11761880_at) / Fold change /veh ACY1 (11761880_at) / RFU 11764098_at / Fold change /veh 11764098_at / RFU SAMD14 (11745864_x_at) / Fold change /veh SAMD14 (11745864_x_at) / RFU NPB (11741838_a_at) / Fold change /veh NPB (11741838_a_at) / RFU TMPRSS6 (11731388_a_at) / Fold change /veh TMPRSS6 (11731388_a_at) / RFU KRTAP10-2 (11738614_at) / Fold change /veh KRTAP10-2 (11738614_at) / RFU ARHGAP8 /// PRR5-ARHGAP8 (11727945_x_at) / Fold change /veh ARHGAP8 /// PRR5-ARHGAP8 (11727945_x_at) / RFU KRTAP5-7 /// NADSYN1 (11734609_at) / Fold change /veh KRTAP5-7 /// NADSYN1 (11734609_at) / RFU RASL12 (11751679_a_at) / Fold change /veh RASL12 (11751679_a_at) / RFU CDKN2B (11736163_a_at) / Fold change /veh CDKN2B (11736163_a_at) / RFU PRF1 (11729649_at) / Fold change /veh PRF1 (11729649_at) / RFU, ZNF638 /// ZNF638-IT1 / Fold change vs veh, ZNF638 /// ZNF638-IT1 / RFU, PANK3 / Fold change vs veh, PANK3 / RFU, SH3YL1 / Fold change vs veh, SH3YL1 / RFU, ZEB2 / Fold change vs veh, ZEB2 / RFU, NRIP1 / Fold change vs veh, NRIP1 / RFU, PTTG1IP / Fold change vs veh, PTTG1IP / RFU, CAPN2 / Fold change vs veh, CAPN2 / RFU, MED14 / Fold change vs veh, MED14 / RFU, SNORA58 / Fold change vs veh, SNORA58 / RFU, C1orf63 / Fold change vs veh, C1orf63 / RFU, LRRFIP1 / Fold change vs veh, LRRFIP1 / RFU, NDUFAF7 / Fold change vs veh, NDUFAF7 / RFU, SLC12A2 / Fold change vs veh, SLC12A2 / RFU, IBTK / Fold change vs veh, IBTK / RFU, ESF1 / Fold change vs veh, ESF1 / Fold change vs veh, TMEM50B / RFU, TAOK1 / Fold change vs veh, TAOK1 / RFU, ACBD3 / Fold change vs veh, ACBD3 / RFU, TMA16 / Fold change vs veh, TMA16 / RFU, RWDD3 / Fold change vs veh, RWDD3 / RFU, BCAT1 / Fold change vs veh, BCAT1 / RFU, EDEM3 / Fold change vs veh, EDEM3 / RFU, TMEM33 / Fold change vs veh, TMEM33 / RFU, WDR75 / Fold change vs veh, WDR75 / RFU, AHCTF1 / Fold change vs veh, AHCTF1 / RFU, TFRC / Fold change vs veh, TFRC / RFU, ZDHHC17 / Fold change vs veh, ZDHHC17 / RFU, NOM1 / Fold change vs veh, NOM1 / RFU, ARL8B / Fold change vs veh, ARL8B / RFU, ZBTB11 / Fold change vs veh, ZBTB11 / RFU, TAMM41 / Fold change vs veh, TAMM41 / RFU, KIAA1704 /// LOC100996395 / Fold change vs veh, KIAA1704 /// LOC100996395 / RFU, ING1 / Fold change vs veh, ING1 / RFU, TRMT61B / Fold change vs veh, TRMT61B / RFU, FUBP3 / Fold change vs veh, FUBP3 / RFU, TP53 / Fold change vs veh, TP53 / RFU, TNKS2 / Fold change vs veh, TNKS2 / RFU, ZFP14 / Fold change vs veh, ZFP14 / RFU, ACTR2 / Fold change vs veh, ACTR2 / RFU, PPP3R1 / Fold change vs veh, PPP3R1 / RFU, PIK3R1 / Fold change vs veh, PIK3R1 / RFU, HNRNPA1 / Fold change vs veh, HNRNPA1 / RFU, RNF170 / Fold change vs veh, RNF170 / RFU, ZNF28 / Fold change vs veh, ZNF28 / RFU, RNGTT / Fold change vs veh, RNGTT / RFU, OGT / Fold change vs veh, OGT / RFU, BRD1 / Fold change vs veh, BRD1 / RFU, MARS / Fold change vs veh, MARS / RFU, ZNF655 / Fold change vs veh, ZNF655 / RFU, FAHD1 / Fold change vs veh, FAHD1 / RFU, BDP1 / Fold change vs veh, BDP1 / RFU, LRRCC1 / Fold change vs veh, LRRCC1 / RFU, ARID1A / Fold change vs veh, ARID1A / RFU, ZNF146 / Fold change vs veh, ZNF146 / RFU, ZNF330 / Fold change vs veh, ZNF330 / RFU, GPN3 / Fold change vs veh, GPN3 / RFU, C9orf123 / Fold change vs veh, C9orf123 / RFU, N4BP2L2 / Fold change vs veh, N4BP2L2 / RFU, ARFIP1 / Fold change vs veh, ARFIP1 / RFU, FAM179B / Fold change vs veh, FAM179B / RFU, BCL10 / Fold change vs veh, BCL10 / RFU, UHRF1BP1L / Fold change vs veh, UHRF1BP1L / RFU, BET1 / Fold change vs veh, BET1 / RFU, CNOT2 / Fold change vs veh, CNOT2 / RFU, ZNF268 / Fold change vs veh, ZNF268 / Fold change vs veh, ZNF507 / RFU, DGCR2 / Fold change vs veh, DGCR2 / RFU, WDSUB1 / Fold change vs veh, WDSUB1 / Fold change vs veh, HSP90B1 /// MIR3652 / RFU, ADSS / Fold change vs veh, ADSS / RFU, GK / Fold change vs veh, GK / RFU, ZNF148 / Fold change vs veh, ZNF148 / RFU, TAF9 / Fold change vs veh, TAF9 / RFU, SLC1A5 / Fold change vs veh, SLC1A5 / RFU, SLMO2 / Fold change vs veh, SLMO2 / RFU, ABCC4 / Fold change vs veh, ABCC4 / RFU, LOC101060439 /// RAP1B / Fold change vs veh, LOC101060439 /// RAP1B / RFU, RFX7 / Fold change vs veh, RFX7 / RFU, GTPBP10 / Fold change vs veh, GTPBP10 / RFU, CNEP1R1 / Fold change vs veh, CNEP1R1 / RFU, BIVM-ERCC5 /// ERCC5 / Fold change vs veh, BIVM-ERCC5 /// ERCC5 / RFU, ILF3 / Fold change vs veh, ILF3 / RFU 11762660_at / Fold change /veh 11762660_at / RFU VCAN (11757783_s_at) / Fold change /veh VCAN (11757783_s_at) / RFU DDX43 (11728927_at) / Fold change /veh DDX43 (11728927_at) / RFU KRT8 (11758188_x_at) / Fold change /veh KRT8 (11758188_x_at) / RFU NKD1 (11759106_at) / Fold change /veh NKD1 (11759106_at) / RFU SRD5A1 (11742802_a_at) / Fold change /veh SRD5A1 (11742802_a_at) / RFU TPSAB1 /// TPSB2 (11721975_s_at) / Fold change /veh TPSAB1 /// TPSB2 (11721975_s_at) / RFU GSTM3 (11746129_a_at) / Fold change /veh GSTM3 (11746129_a_at) / RFU IL23R (11737362_x_at) / Fold change /veh IL23R (11737362_x_at) / RFU TMEM51 (11727254_a_at) / Fold change /veh TMEM51 (11727254_a_at) / RFU PIWIL2 (11732686_x_at) / Fold change /veh PIWIL2 (11732686_x_at) / RFU ORM1 (11744905_x_at) / Fold change /veh ORM1 (11744905_x_at) / RFU CCDC152 (11743942_at) / Fold change /veh CCDC152 (11743942_at) / RFU ECM1 (11717891_a_at) / Fold change /veh ECM1 (11717891_a_at) / RFU IL23R (11748794_a_at) / Fold change /veh IL23R (11748794_a_at) / RFU TNFAIP8L3 (11732012_x_at) / Fold change /veh TNFAIP8L3 (11732012_x_at) / RFU MBOAT4 (11741988_at) / Fold change /veh MBOAT4 (11741988_at) / RFU 11764193_at / Fold change /veh 11764193_at / RFU TMEM53 (11763286_at) / Fold change /veh TMEM53 (11763286_at) / RFU MAGEB2 (11727129_at) / Fold change /veh MAGEB2 (11727129_at) / RFU TMEM200A (11744735_a_at) / Fold change /veh TMEM200A (11744735_a_at) / RFU CCDC152 (11751479_a_at) / Fold change /veh CCDC152 (11751479_a_at) / RFU FAM211A (11726209_a_at) / Fold change /veh FAM211A (11726209_a_at) / RFU RGS16 (11746705_a_at) / Fold change /veh RGS16 (11746705_a_at) / RFU VCAN (11755009_s_at) / Fold change /veh VCAN (11755009_s_at) / RFU RHOB (11743442_s_at) / Fold change /veh RHOB (11743442_s_at) / RFU RGS16 (11720943_a_at) / Fold change /veh RGS16 (11720943_a_at) / RFU RGS16 (11720944_at) / Fold change /veh RGS16 (11720944_at) / RFU, VPS4B / Fold change vs veh, VPS4B / RFU, CREB1 / Fold change vs veh, CREB1 / RFU, DNAJC13 / Fold change vs veh, DNAJC13 / RFU, GNAQ / Fold change vs veh, GNAQ / RFU, CDK5R1 / Fold change vs veh, CDK5R1 / RFU, ZRANB3 / Fold change vs veh, ZRANB3 / RFU, CUL4A / Fold change vs veh, CUL4A / RFU, CCNY / Fold change vs veh, CCNY / RFU, UFL1 / Fold change vs veh, UFL1 / RFU, COG3 / Fold change vs veh, COG3 / RFU, DIAPH2 / Fold change vs veh, DIAPH2 / RFU, SKA2 / Fold change vs veh, SKA2 / RFU, AFF3 / Fold change vs veh, AFF3 / RFU, LMF1 / Fold change vs veh, LMF1 / RFU, IPO11 / Fold change vs veh, IPO11 / RFU, DFFB / Fold change vs veh, DFFB / RFU, FOXP1 / Fold change vs veh, FOXP1 / RFU, CARD8 / Fold change vs veh, CARD8 / RFU, STRN3 / Fold change vs veh, STRN3 / RFU, ADK / Fold change vs veh, ADK / RFU, RASSF2 / Fold change vs veh, RASSF2 / RFU, WIPF1 / Fold change vs veh, WIPF1 / RFU, LARP1B / Fold change vs veh, LARP1B / RFU, RASA1 / Fold change vs veh, RASA1 / RFU, RB1 / Fold change vs veh, RB1 / RFU, PPFIA1 / Fold change vs veh, PPFIA1 / RFU, MAT2A / Fold change vs veh, MAT2A / RFU, CCT5 / Fold change vs veh, CCT5 / RFU, WDR92 / Fold change vs veh, WDR92 / RFU, CUX1 / Fold change vs veh, CUX1 / RFU, TTC7A / Fold change vs veh, TTC7A / RFU, TMEM135 / Fold change vs veh, TMEM135 / RFU, DEPTOR / Fold change vs veh, DEPTOR / RFU, CPM / Fold change vs veh, CPM / RFU, DNAJB6 / Fold change vs veh, DNAJB6 / RFU, CACNA2D3 / Fold change vs veh, CACNA2D3 / RFU, DTX4 / Fold change vs veh, DTX4 / RFU, TFCP2 / Fold change vs veh, TFCP2 / RFU, GMCL1 /// GMCL1P1 / Fold change vs veh, GMCL1 /// GMCL1P1 / RFU, AEBP2 / Fold change vs veh, AEBP2 / RFU, SNHG1 /// SNORD22 /// SNORD25 /// SNORD26 /// SNORD27 /// SNORD28 /// SNORD29 /// SNORD31 / Fold change vs veh, SNHG1 /// SNORD22 /// SNORD25 /// SNORD26 /// SNORD27 /// SNORD28 /// SNORD29 /// SNORD31 / Fold change (Aza/veh), C12orf56 (ProbeSet 11735607_a_at) / Fold change (ACY-1035/veh), C12orf56 (ProbeSet 11735607_a_at) / Fold change (Aza/veh), FGFR1OP (ProbeSet 11751329_s_at) / Fold change (ACY-1035/veh), FGFR1OP (ProbeSet 11751329_s_at) / Fold change (Aza/veh), VPS36 (ProbeSet 11739960_a_at) / Fold change (ACY-1035/veh), VPS36 (ProbeSet 11739960_a_at) / RFU SYPL1 (11715823_x_at) / Fold change /veh SYPL1 (11715823_x_at) / RFU IGFBP7 (11715501_s_at) / Fold change /veh IGFBP7 (11715501_s_at) / RFU REEP3 (11722064_at) / Fold change /veh REEP3 (11722064_at) / RFU IGLL1 (11728026_x_at) / Fold change /veh IGLL1 (11728026_x_at): dose or concentration left out as unconfirmed
Settings: ProbeSet 11721611_a_at; LIST D

Nc1ccc(-c2cccs2)cc1NC(=O)c1ccc2c(c1)cc(C1CC1)n2CCN1CCOCC1 [ACY-1035]
RFU, IPO11: 82.15 RFU

— article PMC5218480 (PLoS ONE, 2017)
